pIC50: −log10 of the molar value. Converted amounts (≈) assume the structure as drawn. Like-named read-outs stand apart in the source and are kept apart here.
Assays:
S. aureus = assay: Bacterial susceptibility testing, MIC by broth microdilution (CLSI); type: cell-based; settings: Staphylococcus aureus, read-out: S. aureus MIC
Procedure: (§1) Minimal inhibitory concentrations (MIC) were determined by the broth microdilution method in accordance with the Clinical and Laboratory Standards Institute (CLSI) guidelines. In brief, organism suspensions were adjusted to a 0.5 McFarland standard to yield a final inoculum between 3×10^5 and 7×10^5 colony-forming units (CFU)/mL. Drug dilutions and inocula were made in sterile, cation adjusted Mueller-Hinton Broth (Beckton Dickinson). An inoculum volume of 100 μL was added to wells containing 100 μL of broth with 2-fold serial dilutions of drug. All inoculated microdilution trays were incubated in ambient air at 35° C. for 18-24 h. Following incubation, the lowest concentration of the drug that prevented visible growth (OD600 nm<0.05) was recorded as the MIC. Performance of the assay was monitored by the use of laboratory quality-control strains and levofloxacin, a compound with a defined MIC spectrum, in accordance with CLSI guidelines.

E. coli = assay: as above; type: cell-based; settings: Escherichia coli, read-out: E. coli MIC
Procedure: as §1

K. pneumoniae = assay: as above; type: cell-based; settings: Klebsiella pneumoniae, read-out: K. pneumoniae MIC
Procedure: as §1

E. coli LpxC = E. coli LpxC (Escherichia coli, UniProt P0A725); assay: LpxC Binding Assay (Rapid Fire MS assay); type: biochemical
Sequence of E. coli LpxC (P0A725 whole entry): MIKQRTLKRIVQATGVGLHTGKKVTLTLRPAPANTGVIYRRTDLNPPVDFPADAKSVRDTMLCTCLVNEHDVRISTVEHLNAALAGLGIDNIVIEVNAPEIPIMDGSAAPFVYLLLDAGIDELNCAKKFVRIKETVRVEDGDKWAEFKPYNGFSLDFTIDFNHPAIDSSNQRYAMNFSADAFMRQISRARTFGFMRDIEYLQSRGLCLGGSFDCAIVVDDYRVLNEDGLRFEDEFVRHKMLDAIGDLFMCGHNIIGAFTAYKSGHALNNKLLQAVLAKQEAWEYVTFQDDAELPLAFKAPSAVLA

[1] = test system: TLR-4 activity of A. baumannii culture supernatants; assay: TLR4 assay: TLR4 activity of A. baumannii culture supernatants in HEK-Blue-hTLR4 cells; type: cell-based; settings: Acinetobacter baumannii, HEK-Blue hTLR4, read-out: % TLR-4 activity
Procedure: The TLR4 assay measures activity of diluted filter-sterilized A. baumannii culture supernatants. The assay was performed as described in Lin et al, Mbio, 2012. Briefly, A. baumannii was passaged to mid log-phase in the presence of Forge LpxC inhibitors. Culture supernatants were harvested, filter-sterilized and diluted 1:1000. TLR4 activity of the supernatants was tested using HEK-Blue-hTLR4 cells (Invivogen) that carry NF-kB and AP-1 driven SEAP (secreted embryonic alkaline phosphatase) reporter gene.
Exemplary TLR4 assay data (% TLR-4 activity) for compounds in embodiments of the disclosure.

[2] = broth microdilution, 35° C., 18-24 h

| Molecule | MIC (S. aureus; [2]) | MIC (E. coli; [2]) | MIC (K. pneumoniae; [2]) | pIC50 (E. coli LpxC) | activity at 4 µg/mL [1] | activity at 8 µg/mL [1] | activity at 16 µg/mL [1] | MIC (S. aureus) | MIC (E. coli) | MIC (K. pneumoniae) |
| --- | --- | --- | --- | --- | --- | --- | --- | --- | --- | --- |
| O=C(NCC(F)F)C(Cc1ccc(C#Cc2ccc(CN3CCOCC3)cc2)cc1)c1nc[nH]c(=O)c1O (stereo not shown) [Compound 1, N-(2,2-difluoroethyl)-2-(5-hydroxy-6-oxo-1,6-dihydropyrimidin-4-yl)-3-(4-((4-(morpholinomethyl)phenyl)ethynyl)phenyl) propanamide] | > 32 µg/mL | < 1 µg/mL | 1 to 8 µg/mL (≈ 1.91 to 15.3 µM) | > 8.00 | < 20% | < 20% | < 20% | – | – | – |
| O=C(NCC(F)(F)F)C(Cc1ccc(C#Cc2ccc(CN3CCOCC3)cc2)cc1)c1nc[nH]c(=O)c1O (stereo not shown) [Compound 2, 2-(5-hydroxy-6-oxo-1,6-dihydropyrimidin-4-yl)-3-(4-((4-(morpholinomethyl)phenyl)ethynyl)phenyl)-N-(2,2,2-trifluoroethyl) propanamide] | > 32 µg/mL | < 1 µg/mL | 1 to 8 µg/mL (≈ 1.85 to 14.8 µM) | 7.30 to 8.00 | < 20% | < 20% | < 20% | – | – | – |
| O=C(NCCF)C(Cc1ccc(C#Cc2ccc(CN3CCOCC3)cc2)cc1)c1nc[nH]c(=O)c1O (stereo not shown) [Compound 3, N-(2-fluoroethyl)-2-(5-hydroxy-6-oxo-1,6-dihydropyrimidin-4-yl)-3-(4-((4-(morpholinomethyl)phenyl)ethynyl)phenyl) propanamide] | > 32 µg/mL | < 1 µg/mL | 1 to 8 µg/mL (≈ 1.98 to 15.9 µM) | 7.30 to 8.00 | 50 to 80% | 20 to 50% | 20 to 50% | – | – | – |
| O=C(CF)NCC(Cc1ccc(C#Cc2ccc(CN3CCOCC3)cc2)cc1)c1nc[nH]c(=O)c1O (stereo not shown) [Compound 12, 2-fluoro-N-(2-(5-hydroxy-6-oxo-1,6-dihydropyrimidin-4-yl)-3-(4-((4-(morpholinomethyl)phenyl)ethynyl)phenyl)propyl) acetamide] | – | – | – | 7.30 to 8.00 | – | – | – | > 32 µg/mL | < 1 µg/mL | 1 to 8 µg/mL (≈ 1.98 to 15.9 µM) |
| O=C(NCC(Cc1ccc(C#Cc2ccc(CN3CCOCC3)cc2)cc1)c1nc[nH]c(=O)c1O)C(F)F (stereo not shown) [Compound 15, 2,2-difluoro-N-(2-(5-hydroxy-6-oxo-1,6-dihydropyrimidin-4-yl)-3-(4-((4-(morpholinomethyl)phenyl)ethynyl)phenyl)propyl)acetamide] | > 32 µg/mL | < 1 µg/mL | 1 to 8 µg/mL (≈ 1.91 to 15.3 µM) | 7.30 to 8.00 | 50 to 80% | 50 to 80% | < 20% | – | – | – |
| O=C1CCCN1Cc1ccc(C#Cc2ccc(CC(CNCCF)c3nc[nH]c(=O)c3O)cc2)cc1 (stereo not shown) [Compound 55, 6-(1-((2-fluoroethyl)amino)-3-(4-((4-((2-oxopyrrolidin-1-yl)methyl)phenyl)ethynyl)phenyl)propan-2-yl)-5-hydroxypyrimidin-4(3H)-one] | – | – | – | 7.30 to 8.00 | > 80% | 20 to 50% | 20 to 50% | – | – | – |
| O=c1[nH]cnc(C(CNCC(F)F)Cc2ccc(C#Cc3ccc(CN4CCOCC4)cc3)cc2)c1O (stereo not shown) [Compound 57, 6-(1-((2,2-difluoroethyl)amino)-3-(4-((4-(morpholinomethyl)phenyl)ethynyl)phenyl)propan-2-yl)-5-hydroxypyrimidin-4(3H)-one] | – | – | – | 6.00 to 7.00 | > 80% | 50 to 80% | 20 to 50% | – | – | – |
| CO[C@@H]1CCN(Cc2ccc(C#Cc3ccc(CC(C(=O)NCC(F)F)c4nc[nH]c(=O)c4O)cc3)cc2)C1 (stereo partly drawn) [Compound 106, N-(2,2-difluoroethyl)-2-(5-hydroxy-6-oxo-1,6-dihydropyrimidin-4-yl)-3-(4-((4-(((R)-3-methoxypyrrolidin-1-yl)methyl)phenyl)ethynyl)phenyl) propanamide] | – | – | – | 6.00 to 7.00 | 50 to 80% | 50 to 80% | 20 to 50% | – | – | – |
| COCCNC(=O)C(Cc1ccc(C#Cc2ccc(CN3CCOCC3)cc2)cc1)c1nc[nH]c(=O)c1O (stereo not shown) [Compound 153, 2-(5-hydroxy-6-oxo-1,6-dihydropyrimidin-4-yl)-N-(2-methoxyethyl)-3-(4-((4-(morpholinomethyl)phenyl)ethynyl)phenyl) propanamide] | – | – | – | 7.30 to 8.00 | > 80% | 50 to 80% | < 20% | – | – | – |
| O=c1[nH]cnc(C(CNCCF)Cc2ccc(C#Cc3ccc(CO)cc3)cc2)c1O (stereo not shown) [Compound 195, 6-(1-((2-fluoroethyl)amino)-3-(4-((4-(hydroxymethyl)phenyl)ethynyl)phenyl)propan-2-yl)-5-hydroxypyrimidin-4(3H)-one] | – | – | – | 6.00 to 7.00 | 50 to 80% | < 20% | < 20% | – | – | – |
| N#CC1CN(Cc2ccc(C#Cc3ccc(CC(CNCCF)c4nc[nH]c(=O)c4O)cc3)cc2)C1 (stereo not shown) [Compound 209, 1-(4-((4-(3-((2-fluoroethyl)amino)-2-(5-hydroxy-6-oxo-1,6-dihydropyrimidin-4-yl)propyl)phenyl)ethynyl)benzyl) azetidine-3-carbonitrile] | – | – | – | 7.30 to 8.00 | – | – | – | – | – | – |
| O=c1[nH]cnc(C(CNCCF)Cc2ccc(C#Cc3ccc(CN4CC5CCC(C4)O5)cc3)cc2)c1O (stereo not shown) [Compound 215, 6-(1-(4-((4-((8-oxa-3-azabicyclo[3.2.1]octan-3-yl)methyl)phenyl)ethynyl)phenyl)-3-((2-fluoroethyl)amino)propan-2-yl)-5-hydroxypyrimidin-4(3H)-one] | – | – | – | 6.00 to 7.00 | 20 to 50% | 20 to 50% | < 20% | – | – | – |
| C[C@@H]1CN(Cc2ccc(C#Cc3ccc(CC(CNCCF)c4nc[nH]c(=O)c4O)cc3)cc2)C[C@@H](C)O1 (stereo partly drawn) [Compound 218, 6-(1-(4-((4-(((2R,6R)-2,6-dimethylmorpholino)methyl)phenyl)ethynyl)phenyl)-3-((2-fluoroethyl)amino)propan-2-yl)-5-hydroxypyrimidin-4(3H)-one] | – | – | – | 6.00 to 7.00 | – | – | – | – | – | – |
| O=c1[nH]cnc(CCc2ccc(C#Cc3ccc(CNC4CC(O)C4)cc3)cc2)c1O (stereo not shown) [Compound 243, 5-hydroxy-6-(4-((4-(((3-hydroxycyclobutyl)amino)methyl)phenyl)ethynyl)phenethyl)pyrimidin-4(3H)-one] | – | – | – | 7.30 to 8.00 | – | – | – | – | – | – |
| O=c1[nH]cnc(CCc2ccc(C#Cc3ccc(CNC4CCOCC4)cc3)cc2)c1O [Compound 244, 5-hydroxy-6-(4-((4-(((tetrahydro-2H-pyran-4-yl)amino)methyl)phenyl)ethynyl)phenethyl)pyrimidin-4(3H)-one] | > 32 µg/mL | < 1 µg/mL | < 1 µg/mL | 6.00 to 7.00 | – | – | – | – | – | – |
| O=c1[nH]cnc(CCc2ccc(C#Cc3cccc(Cl)c3)cc2)c1O [Compound 248, 6-(4-((3-chlorophenyl)ethynyl)phenethyl)-5-hydroxypyrimidin-4(3H)-one] | – | > 32 µg/mL | > 32 µg/mL | 6.00 to 7.00 | – | – | – | – | – | – |
| O=c1[nH]cnc(C(CNCc2cccnc2)Cc2ccc(C#Cc3ccc(CN4CCOCC4)cc3)cc2)c1O (stereo not shown) [Compound 250, 5-hydroxy-6-(1-(4-((4-(morpholinomethyl)phenyl)ethynyl)phenyl)-3-((pyridin-3-ylmethyl)amino)propan-2-yl)pyrimidin-4(3H)-one] | – | < 1 µg/mL | > 32 µg/mL | > 8.00 | – | – | – | – | – | – |
| N-(2,2-difluoroethyl)- 2-(5-hydroxy-6-oxo- 1,6-dihydropyrimidin- 4-yl)-3-(4-((4- (hydroxymethyl) phenyl)ethynyl)phenyl) propanamide [Compound 108] | – | – | – | 7.30 to 8.00 | – | – | – | – | – | – |

From patent US20200095236A1, “ANTIBACTERIAL COMPOUNDS” (FORGE THERAPEUTICS, INC., priority 2017, published 2020)
